What all share (details): Tables 2a-2k
One test addresses T1, ERK-1 protein (Homo sapiens, UniProt P27361).
T1 construct: purchased Calbiochem
Description: Kinase Selectivity Assay ERK-1. In kind it is biochemical. The procedure:
Assays to test compound inhibition of other kinases were preformed using methods that measure the amount of phosphorylation of a biotinylated peptide substrate. Biotinylated peptide substrates were selected from the literature as appropriate for the enzyme being evaluated. The general procedure used to assay for kinase activity is as follows: A kinase reaction mix was prepared in 50 mM Tris-HCl pH=8, 10 mM MgCl2, 0.1 mM Na3VO4, 1 mM DTT, 10 μM ATP, 0.25-1 μM biotinylated peptide substrate, 0.2-0.82 μCuries per well ^33P-γ-ATP [2000-3000 Ci/mmol]. Assay conditions vary slightly for each protein kinase, for example, insulin receptor kinase requires 10 mM MnCl2 for activity and Calmodulin-dependent protein kinase requires calmodulin and 10 mM CaCl2. These assay conditions are known in the art. […] The plate was read on a scintillation counter to determine ^33P-γ-ATP incorporated into the immobilized peptide. […] A maximum and minimum signal for the assay was determined on each plate. The IC50 was calculated from the dose response curve of the percent inhibition of the maximum signal in the assay according to the formula [max signal—background/test compound signal—background (100)=% inhibition] by graphing the percent inhibition against the log concentration of test compound. […]

The target in a further test is T2, CDK4/D1 complex (Mus musculus, UniProt P30285).
T2 construct: made in house; host or cells: insect cells (baculovirus co-infection)
T2 sequence (P30285 whole entry): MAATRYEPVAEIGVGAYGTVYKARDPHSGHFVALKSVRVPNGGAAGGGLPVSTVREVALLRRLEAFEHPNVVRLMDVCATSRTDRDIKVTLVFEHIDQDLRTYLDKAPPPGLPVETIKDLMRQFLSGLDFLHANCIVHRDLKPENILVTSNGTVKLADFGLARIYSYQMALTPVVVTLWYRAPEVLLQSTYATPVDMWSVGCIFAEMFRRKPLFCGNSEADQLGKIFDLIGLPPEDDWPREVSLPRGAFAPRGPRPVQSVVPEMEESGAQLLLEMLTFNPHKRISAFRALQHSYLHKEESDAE
T2 sequence (P25322 whole entry partner): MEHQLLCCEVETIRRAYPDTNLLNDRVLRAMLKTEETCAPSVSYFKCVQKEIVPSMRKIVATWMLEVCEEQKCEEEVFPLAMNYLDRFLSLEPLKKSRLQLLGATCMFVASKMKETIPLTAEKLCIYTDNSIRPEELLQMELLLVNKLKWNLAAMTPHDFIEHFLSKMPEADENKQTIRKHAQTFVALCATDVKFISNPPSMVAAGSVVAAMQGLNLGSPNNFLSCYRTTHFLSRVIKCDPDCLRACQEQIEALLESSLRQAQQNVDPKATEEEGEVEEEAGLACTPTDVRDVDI
Description: Kinase Selectivity Assay CDK4. In kind it is biochemical. The method, then: Assays to test compound inhibition of other kinases were preformed using methods that measure the amount of phosphorylation of a biotinylated peptide substrate. Biotinylated peptide substrates were selected from the literature as appropriate for the enzyme being evaluated. The general procedure used to assay for kinase activity is as follows: A kinase reaction mix was prepared in 50 mM Tris-HCl pH=8, 10 mM MgCl2, 0.1 mM Na3VO4, 1 mM DTT, 10 μM ATP, 0.25-1 μM biotinylated peptide substrate, 0.2-0.82 μCuries per well ^33P-γ-ATP [2000-3000 Ci/mmol]. Assay conditions vary slightly for each protein kinase, for example, insulin receptor kinase requires 10 mM MnCl2 for activity and Calmodulin-dependent protein kinase requires calmodulin and 10 mM CaCl2. These assay conditions are known in the art. The reaction mixture was dispensed into the wells of a streptavidin coated Flashplate and 1 μl drug stock in 100% DMSO was added to a 100 μl reaction volume resulting in a final concentration of 1% DMSO on the reaction. Enzyme was diluted in 50 mM Tris-HCl pH=8.0, 0.1% BSA and add to each well. The reaction was incubated for one hour at 30° C. in the presence of compound. After one hour the reaction mix was aspirated from the plate and the plate was washed with PBS containing 100 mM EDTA. The plate was read on a scintillation counter to determine ^33P-γ-ATP incorporated into the immobilized peptide. Test compounds were assayed in duplicate at 8 concentrations [100 uM, 10 uM, 1 uM, 100 nM, 10 nM, 1 nM, 100 pM, 10 pM]. A maximum and minimum signal for the assay was determined on each plate. The IC50 was calculated from the dose response curve of the percent inhibition of the maximum signal in the assay according to the formula [max signal—background/test compound signal—background (100)=% inhibition] by graphing the percent inhibition against the log concentration of test compound. Known inhibitor compounds appropriate for the kinase being assayed were also included on each plate. […]

Test [1] concerns the target PKC (protein kinase-C), gamma or beta isoform. The experiment in a line: Kinase Selectivity Assay PKC. In kind it is biochemical, human. The method, then:
Assays to test compound inhibition of other kinases were preformed using methods that measure the amount of phosphorylation of a biotinylated peptide substrate. Biotinylated peptide substrates were selected from the literature as appropriate for the enzyme being evaluated. […] Assay conditions vary slightly for each protein kinase, for example, insulin receptor kinase requires 10 mM MnCl2 for activity and Calmodulin-dependent protein kinase requires calmodulin and 10 mM CaCl2. These assay conditions are known in the art. The reaction mixture was dispensed into the wells of a streptavidin coated Flashplate and 1 μl drug stock in 100% DMSO was added to a 100 μl reaction volume resulting in a final concentration of 1% DMSO on the reaction. Enzyme was diluted in 50 mM Tris-HCl pH=8.0, 0.1% BSA and add to each well. The reaction was incubated for one hour at 30° C. in the presence of compound. After one hour the reaction mix was aspirated from the plate and the plate was washed with PBS containing 100 mM EDTA. The plate was read on a scintillation counter to determine ^33P-γ-ATP incorporated into the immobilized peptide. Test compounds were assayed in duplicate at 8 concentrations [100 uM, 10 uM, 1 uM, 100 nM, 10 nM, 1 nM, 100 pM, 10 pM]. A maximum and minimum signal for the assay was determined on each plate. The IC50 was calculated from the dose response curve of the percent inhibition of the maximum signal in the assay according to the formula [max signal—background/test compound signal—background (100)=% inhibition] by graphing the percent inhibition against the log concentration of test compound. Known inhibitor compounds appropriate for the kinase being assayed were also included on each plate.
CDK2 in complex with cyclin A is commercially available (Upstate Biotech, Lake Placid, N.Y.). […]

The IC50 is the concentration at which inhibition is half-maximal. A lower IC50 goes with inhibition by little substance.

T1 sequence (P27361 whole entry, species assumed): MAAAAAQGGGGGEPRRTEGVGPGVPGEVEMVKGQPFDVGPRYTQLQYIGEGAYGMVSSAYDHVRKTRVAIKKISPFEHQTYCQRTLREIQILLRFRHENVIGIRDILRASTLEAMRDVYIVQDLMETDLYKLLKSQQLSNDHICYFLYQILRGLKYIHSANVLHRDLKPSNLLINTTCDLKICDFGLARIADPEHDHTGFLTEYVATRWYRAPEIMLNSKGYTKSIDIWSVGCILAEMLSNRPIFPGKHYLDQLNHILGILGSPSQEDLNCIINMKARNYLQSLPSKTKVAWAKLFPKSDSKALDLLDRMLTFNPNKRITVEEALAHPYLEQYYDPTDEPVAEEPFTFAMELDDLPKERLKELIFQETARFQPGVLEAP

At ERK-1 protein, `Nc1nc(Nc2ccc(S(N)(=O)=O)cc2)nn1C(=O)c1cccs1` [Cpd 14, 4-[[5-amino-1-(2-thienylcarbonyl)-1H-1,2,4-triazol-3-yl]amino]-benzenesulfonamide] registered an IC50 above 100000 nM.

Take `Cc1ccc(F)c(C(=O)n2nc(Nc3ccc(S(N)(=O)=O)cc3)nc2N)c1Cl` [Cpd 69, 4-[[5-amino-1-(2-chloro-6-fluoro-3-methylbenzoyl)-1H-1,2,4-triazol-3-yl]amino]-benzenesulfonamide]: the IC50 against CDK4/D1 complex worked out at 187 nM.

`Nc1nc(Nc2ccc(S(N)(=O)=O)cc2)nn1C(=O)c1c(F)cccc1Cl` [Cpd 70, 4-[[5-amino-1-(2-chloro-6-fluorobenzoyl)-1H-1,2,4-triazol-3-yl]amino]-benzenesulfonamide] registered an IC50 against CDK4/D1 complex of 167 nM. This IC50 and that of the compound before are within 1.5-fold of each other.

As to `CN1CCN(c2ccc(Nc3nc(N)n(C(=O)c4c(F)cccc4F)n3)cc2)CC1` [Cpd 71, 1-(2,6-difluorobenzoyl)-N^3-[4-(4-methyl-1-piperazinyl)phenyl]-1H-1,2,4-triazole-3,5-diamine], on CDK4/D1 complex, the IC50 was 129 nM.

In turn, `Cc1ccsc1C(=O)n1nc(Nc2ccc(N3CCNC3=O)cc2)nc1N` [Cpd 113, 1-[4-[[5-amino-1-[(3-methyl-2-thienyl)carbonyl]-1H-1,2,4-triazol-3-yl]amino]phenyl]-2-imidazolidinone] showed an IC50 in test [1] above 100000 nM.

The record behind these values is patent US6924302B2, “Substituted triazole diamine derivatives as kinase inhibitors” (Ortho McNeil Pharmaceutical, Inc., priority 2000, dated 2005).
